T/C data for 15 compounds are collected here from PubChem BioAssay AID326 (DTP/NCI, 2004).

This assay has as its system CD2F1 mice, P388/DHAQ leukemia ip, median survival T/C. The experiment in a line: NCI In Vivo Anticancer Drug Screen. Data for tumor model P388 Leukemia resistant to Dihydroxy Anthracenedione; NSC 299195 (intraperitoneal) in CD2F1 (CDF1) mice. Particulars: endpoint: median survival time, higher = longer survival. As to the method: The antitumor activity of compounds was measured in mice bearing transplantable tumors. Survival or tumor size were measured and the results are expressed as the measurement made in the treated group (T) divided by the measurement made in the vehicle treated control group (C). The tumor model used in this assay is P388 Leukemia resistant to Dihydroxy Anthracenedione; NSC 299195 (intraperitoneal) in CD2F1 (CDF1) mice

Setting [1] is: dose: 4.32 mg/kg/injection, schedule: Q04DX003 (ip), vehicle: saline.
[2] abbreviates: dose: 12.0 mg/kg/injection, schedule: Q04DX003 (ip), vehicle: saline.
[3] abbreviates: dose: 13.0 mg/kg/injection, schedule: Q04DX003 (ip), vehicle: saline.

Several values for one entry are separate records, joined by “and”; a condition that tells them apart may be missing. Equal values may be shown once. Inconclusive results and toxic doses are left out.

For `S=P(N1CC1)(N1CC1)N1CC1`, the T/C was 103 % of control (dose: 3.24 mg/kg/injection, schedule: Q04DX002 (ip), vehicle: saline); 122 % of control (dose: 5.4 mg/kg/injection, schedule: Q04DX002 (ip), vehicle: saline); 183 % of control (dose: 15.0 mg/kg/injection, schedule: Q04DX002 (ip), vehicle: saline).
For `COc1ccc(CCN(C)CCCC(C#N)(c2ccc(OC)c(OC)c2)C(C)C)cc1OC` (stereo not given), the T/C runs as follows: (dose: 16.0 mg/kg/injection, schedule: Q03HX004 (ip), vehicle: saline) 100 % of control; (dose: 32.0 mg/kg/injection, schedule: Q03HX004 (ip), vehicle: saline) 103 % of control.
On to `COc1cccc2c1C(=O)c1c(O)c3c(c(O)c1C2=O)C[C@@](O)(C(=O)CO)C[C@@H]3OC1CC(N)C(O)C(C)O1` (stereo not given in full), for which the T/C by setting is: (dose: 0.97 mg/kg/injection, schedule: Q04DX002 (ip), vehicle: saline) 118 % of control; (dose: 1.3 mg/kg/injection, schedule: Q04DX002 (ip), vehicle: saline) 115 % of control and 120 % of control; (dose: 2.16 mg/kg/injection, schedule: Q04DX002 (ip), vehicle: saline) 120 % of control; (dose: 2.7 mg/kg/injection, schedule: Q04DX002 (ip), vehicle: saline) 119 % of control; (dose: 3.6 mg/kg/injection, schedule: Q04DX002 (ip), vehicle: saline) 123 % of control; (dose: 6.0 mg/kg/injection, schedule: Q04DX002 (ip), vehicle: saline) 121 % of control. Moreover, the T/C (dose: 10.0 mg/kg/injection, schedule: Q04DX002 (ip), vehicle: saline) is 102 % of control and 120 % of control.
`O=C1c2ccccc2C(=O)c2c(NCCNCCO)ccc(O)c21`: the T/C was 121 % of control (dose: 19.4 mg/kg/injection, schedule: Q04DX003 (ip), vehicle: saline); 107 % of control (dose: 32.4 mg/kg/injection, schedule: Q04DX003 (ip), vehicle: saline); 90 % of control (dose: 54.0 mg/kg/injection, schedule: Q04DX003 (ip), vehicle: saline).
For the compound `C[n+]1ccc(Nc2ccc(NC(=O)c3ccc(Nc4cc[n+](C)c5ccc(N)cc45)cc3)cc2)cc1`, the T/C was 114 % of control (dose: 1.94 mg/kg/injection, schedule: Q04DX003 (ip), vehicle: water); 116 % of control (dose: 3.24 mg/kg/injection, schedule: Q04DX003 (ip), vehicle: water); 116 % of control (dose: 5.4 mg/kg/injection, schedule: Q04DX003 (ip), vehicle: water).
In the case of `CC[C@@]1(O)C[C@H](OC2CC(N(C)C)C(OC3CC(O)C(OC4CCC(=O)C(C)O4)C(C)O3)C(C)O2)c2c(cc3c(c2O)C(=O)c2c(O)cccc2C3=O)[C@H]1C(=O)OC` (stereo not given in full), the T/C runs as follows: under setting [1], 120 % of control; under setting [2], 196 % of control.
For `CC(=O)[C@]1(O)Cc2c(O)c3c(c(O)c2[C@@H](OC2CC(N)C(O)C(C)O2)C1)C(=O)c1c(O)cccc1C3=O` (stereo not given in full), the T/C runs as follows: (dose: 0.32 mg/kg/injection, schedule: Q04DX003 (ip), vehicle: saline) 113 % of control; (dose: 0.54 mg/kg/injection, schedule: Q04DX003 (ip), vehicle: saline) 111 % of control; (dose: 1.5 mg/kg/injection, schedule: Q04DX003 (ip), vehicle: saline) 110 % of control; (dose: 2.0 mg/kg/injection, schedule: Q04DX003 (ip), vehicle: saline) 96 % of control; (dose: 2.5 mg/kg/injection, schedule: Q04DX003 (ip), vehicle: saline) 95 % of control.
For the compound `O=c1[nH]cc(F)c(=O)[nH]1`, the T/C by setting is: under setting [3], 104 % of control; (dose: 60.0 mg/kg/injection, schedule: Q04DX003 (ip), vehicle: saline) 116 % of control and 226 % of control; (dose: 100.0 mg/kg/injection, schedule: Q04DX003 (ip), vehicle: saline) 109 % of control.
In the case of `CC[C@H]1CN2CCc3cc(OC)c(OC)cc3[C@@H]2C[C@@H]1C[C@H]1NCCc2cc(OC)c(OC)cc21`, the T/C runs as follows: under setting [1], 111 % of control; (dose: 5.18 mg/kg/injection, schedule: Q04DX003 (ip), vehicle: saline) 111 % of control; (dose: 7.2 mg/kg/injection, schedule: Q04DX003 (ip), vehicle: saline) 121 % of control; (dose: 8.64 mg/kg/injection, schedule: Q04DX003 (ip), vehicle: saline) 121 % of control; under setting [2], 121 % of control; (dose: 14.4 mg/kg/injection, schedule: Q04DX003 (ip), vehicle: saline) 156 % of control. Further, for the setting “dose: 24.0 mg/kg/injection, schedule: Q04DX003 (ip), vehicle: saline”, the T/C is 175 % of control and 228 % of control.
With `CCC1(O)CC2CN(CCc3c([nH]c4ccccc34)C(C(=O)OC)(c3cc4c(cc3OC)N(C)C3C(O)(C(N)=O)C(O)C5(CC)C=CCN6CCC43C65)C2)C1` (stereo not given) (tested in a mixture with another compound), the T/C reads like this: (dose: 0.65 mg/kg/injection, schedule: Q04DX003 (ip), vehicle: clinical formulation) 173 % of control; (dose: 1.08 mg/kg/injection, schedule: Q04DX003 (ip), vehicle: clinical formulation) 182 % of control; (dose: 1.8 mg/kg/injection, schedule: Q04DX003 (ip), vehicle: clinical formulation) 208 % of control; (dose: 3.0 mg/kg/injection, schedule: Q04DX003 (ip), vehicle: clinical formulation) 87 % of control.
In the case of `NCCCN=c1ccc2c3c1c(O)c1c(O)ccc(=O)c1c3[nH]n2CCNCCO`, the T/C is, setting by setting: (dose: 9.72 mg/kg/injection, schedule: Q04DX002 (ip), vehicle: water) 124 % of control; (dose: 27.0 mg/kg/injection, schedule: Q04DX002 (ip), vehicle: water) 97 % of control; (dose: 45.0 mg/kg/injection, schedule: Q04DX002 (ip), vehicle: water) 97 % of control.
Regarding `COc1cc(NS(C)(=O)=O)ccc1Nc1c2ccccc2nc2ccccc12`, the T/C is, setting by setting: (dose: 2.59 mg/kg/injection, schedule: Q04DX002 (ip), vehicle: other) 108 % of control and 114 % of control (2×); (dose: 2.59 mg/kg/injection, schedule: Q04DX003 (ip), vehicle: saline) 107 % of control; under setting [1], 117 % of control.
Regarding `COc1cc([C@@H]2c3cc4c(cc3[C@@H](OC3OC5CO[C@@H](c6cccs6)OC5C(O)C3O)[C@H]3COC(=O)[C@H]23)OCO4)cc(OC)c1O` (stereo not given in full), the T/C (dose: 3.89 mg/kg/injection, schedule: Q04DX003 (ip), vehicle: clinical formulation) was 114 % of control; the T/C (dose: 3.89 mg/kg/injection, schedule: Q04DX003 (ip), vehicle: saline) is 118 % of control; the T/C (dose: 6.48 mg/kg/injection, schedule: Q04DX003 (ip), vehicle: clinical formulation) is 121 % of control; the T/C (dose: 7.78 mg/kg/injection, schedule: Q04DX003 (ip), vehicle: saline) was 108 % of control; the T/C (dose: 10.8 mg/kg/injection, schedule: Q04DX003 (ip), vehicle: clinical formulation) is 122 % of control; the T/C under setting [3] is 108 % of control. The T/C is 111 % of control (dose: 21.6 mg/kg/injection, schedule: Q04DX003 (ip), vehicle: saline) and 120 % of control (dose: 36.0 mg/kg/injection, schedule: Q04DX003 (ip), vehicle: saline).
For `C(=N/NC1=NCCN1)/c1c2ccccc2c(/C=N\NC2=NCCN2)c2ccccc12`, the T/C is 103 % of control (dose: 5.18 mg/kg/injection, schedule: Q04DX002 (ip), vehicle: saline); 108 % of control (dose: 8.64 mg/kg/injection, schedule: Q04DX002 (ip), vehicle: saline); 111 % of control (dose: 13.0 mg/kg/injection, schedule: Q04DX002 (ip), vehicle: water); 105 % of control (dose: 14.4 mg/kg/injection, schedule: Q04DX002 (ip), vehicle: saline); 118 % of control (dose: 21.6 mg/kg/injection, schedule: Q04DX002 (ip), vehicle: water); 111 % of control (dose: 36.0 mg/kg/injection, schedule: Q04DX002 (ip), vehicle: water). The T/C runs as follows: (dose: 40.0 mg/kg/injection, schedule: Q04DX002 (ip), vehicle: saline) 98 % of control; (dose: 60.0 mg/kg/injection, schedule: Q04DX002 (ip), vehicle: water) 109 % of control.
In the case of `CO[C@H](C(=O)[C@@H](O)[C@@H](C)O)[C@@H]1Cc2cc3cc(OC4CC(OC5CC(O)C(O)C(C)O5)C(O)C(C)O4)c(C)c(O)c3c(O)c2C(=O)[C@H]1OC1CC(OC2CC(OC3CC(C)(O)C(O)C(C)O3)C(O)C(C)O2)C(O)C(C)O1` (stereo not given in full), the T/C reads like this: (dose: 0.22 mg/kg/injection, schedule: Q01DX005 (ip), vehicle: clinical formulation) 112 % of control; (dose: 0.36 mg/kg/injection, schedule: Q01DX005 (ip), vehicle: clinical formulation) 110 % of control; (dose: 0.6 mg/kg/injection, schedule: Q01DX005 (ip), vehicle: clinical formulation) 120 % of control; (dose: 1.0 mg/kg/injection, schedule: Q01DX005 (ip), vehicle: clinical formulation) 123 % of control.
